According to PubChem BioAssay AID2060505 (Molecular Pharmacology Branch, DTP, NCI, 2025):

Tested on: 633275-114-R-J1-PDC complex spheroids, viability
Assay: Anticancer human tumor 633275-114-R-J1-PDC patient-derived endometrial adenocarcinoma cell line growth inhibition [GQUAD]
Conditions: for IC50: curve of first compound; for viability, T/C: stronger effect = lower value
Summary of the method: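 Tumor cells were grown as complex spheroids with HUVEC endothelial cells and mesenchymal stem cells as stroma. G-quadruplex stabilizers were combined with targeted agents over half-log dilutions from near the clinical Cmax, or from 10 microM.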

[1] = second compound 0.0316 µM, first compound 0.0316 µM
[2] = second compound 0.0316 µM, first compound 0.1 µM
[3] = second compound 0.0316 µM, first compound 0.316 µM
[4] = second compound 0.0316 µM, first compound 1 µM
[5] = second compound 0.0316 µM, first compound 3.16 µM
[6] = second compound 0.0316 µM, first compound 10 µM
[7] = second compound 0.1 µM, first compound 0.0316 µM
[8] = second compound 0.1 µM, first compound 0.1 µM
[9] = second compound 0.1 µM, first compound 0.316 µM
[10] = second compound 0.1 µM, first compound 1 µM
[11] = second compound 0.1 µM, first compound 3.16 µM
[12] = second compound 0.1 µM, first compound 10 µM
[13] = second compound 0.316 µM, first compound 0.0316 µM
[14] = second compound 0.316 µM, first compound 0.1 µM
[15] = second compound 0.316 µM, first compound 0.316 µM
[16] = second compound 0.316 µM, first compound 1 µM
[17] = second compound 0.316 µM, first compound 3.16 µM
[18] = second compound 0.316 µM, first compound 10 µM
[19] = second compound 1 µM, first compound 0.0316 µM
[20] = second compound 1 µM, first compound 0.1 µM
[21] = second compound 1 µM, first compound 0.316 µM
[22] = second compound 1 µM, first compound 1 µM
[23] = second compound 1 µM, first compound 3.16 µM
[24] = second compound 1 µM, first compound 10 µM
[25] = second compound 3.16 µM, first compound 0.0316 µM
[26] = second compound 3.16 µM, first compound 0.1 µM
[27] = second compound 3.16 µM, first compound 0.316 µM
[28] = second compound 3.16 µM, first compound 1 µM
[29] = second compound 3.16 µM, first compound 3.16 µM
[30] = second compound 3.16 µM, first compound 10 µM
[31] = second compound 10 µM, first compound 0.0316 µM
[32] = second compound 10 µM, first compound 0.1 µM
[33] = second compound 10 µM, first compound 0.316 µM
[34] = second compound 10 µM, first compound 1 µM
[35] = second compound 10 µM, first compound 3.16 µM
[36] = second compound 10 µM, first compound 10 µM
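Further: spheroids exposed to the agents for seven days.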
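Wherever viability, T/C is given: percent of DMSO vehicle control viability which is 100%.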

CC1COCCN1c1cc(C2(O)CC3CCC(C2)O3)c2cnn(-c3ccn[nH]3)c2n1 (centres undefined) + CN(C)c1ccc(Nc2c3ccc(NC(=O)CCN4CCCC4)cc3nc3cc(NC(=O)CCN4CCCC4)ccc23)cc1
IC50 (second compound 0.0316 µM): 93.5 nM
IC50 (second compound 0.1 µM): 92.7 nM
IC50 (second compound 0.316 µM): 105 nM
IC50 (second compound 1 µM): 65.3 nM
IC50 (second compound 3.16 µM): 53.2 nM
IC50 (second compound 10 µM): < 31.6 nM
viability, T/C [1]: 73.6%
viability, T/C [2]: 48.9%
viability, T/C [3]: 28.7%
viability, T/C [4]: 18.4%
viability, T/C [5]: 13.6%
viability, T/C [6]: 9.33%
viability, T/C [7]: 79.9%
viability, T/C [8]: 46.5%
viability, T/C [9]: 30.2%
viability, T/C [10]: 19.8%
viability, T/C [11]: 15.4%
viability, T/C [12]: 9.07%
viability, T/C [13]: 70.7%
viability, T/C [14]: 50.7%
viability, T/C [15]: 33.1%
viability, T/C [16]: 19.2%
viability, T/C [17]: 15.8%
viability, T/C [18]: 10.4%
viability, T/C [19]: 62.7%
viability, T/C [20]: 41.7%
viability, T/C [21]: 30.4%
viability, T/C [22]: 19.8%
viability, T/C [23]: 14.4%
viability, T/C [24]: 9.06%
viability, T/C [25]: 58.8%
viability, T/C [26]: 39%
viability, T/C [27]: 26.7%
viability, T/C [28]: 15.3%
viability, T/C [29]: 12%
viability, T/C [30]: 8.3%
viability, T/C [31]: 29.2%
viability, T/C [32]: 23.9%
viability, T/C [33]: 17%
viability, T/C [34]: 10.9%
viability, T/C [35]: 8.55%
viability, T/C [36]: 4.92%

Cc1cccc(N(C)C(=O)C2C(O)CCN2c2nc(C)cc(C(F)(F)F)c2C#N)c1 (centres undefined) + CN(C)c1ccc(Nc2c3ccc(NC(=O)CCN4CCCC4)cc3nc3cc(NC(=O)CCN4CCCC4)ccc23)cc1
IC50 (second compound 0.0316 µM): > 10000 nM
IC50 (second compound 0.1 µM): > 10000 nM
IC50 (second compound 0.316 µM): > 10000 nM
IC50 (second compound 1 µM): > 10000 nM
IC50 (second compound 3.16 µM): 8550 nM
IC50 (second compound 10 µM): < 31.6 nM
viability, T/C [1]: 102%
viability, T/C [2]: 99.2%
viability, T/C [3]: 105%
viability, T/C [4]: 105%
viability, T/C [5]: 96.3%
viability, T/C [6]: 104%
viability, T/C [7]: 107%
viability, T/C [8]: 103%
viability, T/C [9]: 104%
viability, T/C [10]: 99.5%
viability, T/C [11]: 101%
viability, T/C [12]: 97.8%
viability, T/C [13]: 99.3%
viability, T/C [14]: 94.4%
viability, T/C [15]: 101%
viability, T/C [16]: 91%
viability, T/C [17]: 94%
viability, T/C [18]: 85.3%
viability, T/C [19]: 96.2%
viability, T/C [20]: 96.6%
viability, T/C [21]: 97.6%
viability, T/C [22]: 99.5%
viability, T/C [23]: 94.6%
viability, T/C [24]: 87.1%
viability, T/C [25]: 88.8%
viability, T/C [26]: 84.8%
viability, T/C [27]: 95.5%
viability, T/C [28]: 82.4%
viability, T/C [29]: 69.2%
viability, T/C [30]: 47%
viability, T/C [31]: 30.5%
viability, T/C [32]: 34.7%
viability, T/C [33]: 28%
viability, T/C [34]: 29.6%
viability, T/C [35]: 28.2%
viability, T/C [36]: 16.1%
